{"source": "paper PMC6832551", "about": "“An Antiviral Peptide from Alopecosa nagpag Spider Targets NS2B–NS3 Protease of Flaviviruses” (Toxins, 2019)", "origin": "cited, not measured here", "tested_on": "ZIKV", "source_text": "Despite their differences in pathogeneses, DENV and ZIKV are representative, emerging mosquito-borne flaviviruses with similar replication cycles which infect millions of people annually. The non-structural proteins of flaviviruses are important for virus replication and assembly. It has been established that NS2B–NS3 forms the viral protease and NS3 alone serves as the dsRNA helicase. Recently, the NS2B–NS3 protease became an attractive antiviral target, and many of its inhibitors have been reported as potential antivirals. Protease inhibitors are ubiquito ...", "note": "Where a name gives a salt, the structure may show the parent alone.", "data": [{"compound": "CC(C)C[C@H]1C(=O)N2CCC[C@H]2[C@]2(O)O[C@](NC(=O)[C@@H]3C=C4c5cccc6[nH]c(Br)c(c56)C[C@H]4N(C)C3)(C(C)C)C(=O)N12", "note": "[bromocriptine, Bromocriptine mesylate]", "values": [{"measurement": "ZIKV viral replication (in words)", "value": "confirmed to inhibit ZIKV protease activity and viral replication"}]}]}
